Data set [1] concerns myelin basic protein (MBP). The data set can be described thus: Induction of myelin basic protein (MBP) production in MO3-13 cells, slot blot with anti-MBP antibody. The following applies: with and without cuprizone; for relative MBP binding compared with vehicle control: MO3-13 cells, p<0.0001, FIG. 2; for relative MBP binding (anti-MBP antibody): MO3-13 whole cell extracts. In kind it is cell-based, human. How it is done:
Whole cell extracts of MO3-13 cells were prepared using 6 M urea. An aliquot of 100 μL was removed and diluted with an equal volume of 6 M urea. A 5 μL aliquot was removed and quantitated for protein levels. Total protein concentrations were determined using the BioRad protein assay method at 595 nm. Total protein in the whole cell extracts was determined and a ratio of recovered protein was used to calculate the relative amount of MBP in the whole cell extracts. Whole cell extracts were diluted to 0.1 mg/mL. Extracts containing 2.5 μg of protein were applied onto nitrocellulose membrane in a slot blotter using a vacuum method to draw the sample onto the membrane. The non-protein sites on the membrane were blocked with 2% ECL blocking reagent diluted in PBS-Tween20. Primary anti-Bovine MBP was diluted in the same block solution at 300×. The primary antibody was incubated one hour at room temperature with gentle shaking. The blot was developed using enhanced ECL (GE Healthcare) method. Image of bound antibody were captured using Image Lab software driving a Bio-Rad ChemiDoc XRS+ image capture system. The data was graphically represented using Graph Pad Prism software.

Data set [2] relates to myelin basic protein (MBP). Nature of the data set: Cuprizone model of demyelination in mice: MBP immunohistochemistry staining score. It is filed as in vivo. How it is done:
(§1) The ability of compound A1 to effect the demyelination process was evaluated in a cuprizone model of demyelination in mice. Thirty-six male C57/B6 mice aged 7-8 weeks were acclimated for 1 week prior to study commencement and housed 2 mice per cage. Mice in Group 1 received control chow without cuprizone, and all other mice were fed mouse diet containing 0.2% cuprizone for 5 weeks. Food was changed every other day, body and food weights were obtained daily. All cuprizone and control food was stored in vacuum containers and stored frozen until use.
(§2) Dosing solutions were prepared fresh on each day of dosing. Compound A1 was first dissolved in DMSO in a volume of 10% of the final volume, followed by addition of solutol HS-15 in a volume of 10% of the final volume and a solution of 10% hydroxypropyl-β-cyclodextrin in a volume of 80% of the final volume. Unless otherwise noted, all test articles were administered in a volume of 0.1 mL/10 g body weight.
(§3) During this process, mice received either vehicle or compound A1 at 50 mg/kg or 100 mg/kg via intraperitoneal injection daily. At the end of 5 weeks, the mice were sacrificed and the brain histology of each group compared to controls that had not received cuprizone. Statistical differences between treatment groups were determined using Mann-Whitney Rank Sum or ANOVA tests with a critical value of 0.05.
(§4) Evaluation of the myelin content of the brains was focused on three areas—the rostral corpus callosum, the dorsal corpus callosum and the cerebellum. The extent of demyelination in both sagittal sections was determined by a board certified veterinary pathologist blinded to animal treatment. Percent demyelination was scored as follows: demyelination ranging from 0 to 10% of the total anatomical structure was scored as 0; demyelination ranging from 11 to 30% of the total anatomical structure was scored as 1; demyelination ranging from 31 to 60% of the total anatomical structure was scored as 2; demyelination ranging from 61 to 90% of the total anatomical structure was scored as 3; and demyelination ranging from 91 to 100% of the total anatomical structure was scored as 4. The extent of MBP staining intensity was based on a 1-4 scale, where 4 was the highest level of staining seen (100%).
In addition, immunohistochemistry was performed for myelin basic protein (MBP), and slides were analyzed for the intensity of MBP staining in the same regions. The mean rostral corpus callosum MBP staining score for the control groups was 4. In the vehicle treated group receiving cuprizone chow, the mean rostral corpus callosum m MBP staining score was 2.9. In the group receiving cuprizone chow and compound A1 at 50 mg/kg, the mean rostral corpus callosum MBP staining score was 3.2. Additional analysis of the rostral corpus callosum MBP staining was conducted using an ANOVA test.

Another data set concerns C57/B6 mice. Nature of the data set: Cuprizone model of demyelination in mice: brain myelination scores. It is filed as in vivo. How it is done:
as §1, §2, §3, §4

Data set [3] can be described thus: Cuprizone model in mice: body weight, deaths and toxicity. It is filed as in vivo. How it is done: as §1, §2, §3
All animals were weighed every day in order to assess possible differences in animal weight among treatment groups as an indication of possible toxicity resulting from the treatments. Animals with a weight loss of more than 20% of their starting weight were euthanized. Mice with weight loss of more than 15% of their starting weight were not treated again until weight loss recovered to less than 5% of their starting weight. […] One animal in the cuprizone/vehicle group was also euthanized on Day 20 due to poor condition and weight loss. All remaining mice survived until the end of the study.

In the case of `Cc1cc(C(F)(F)F)cc(=S)[nH]1` [A3, 6-methyl-4-trifluoromethylpyridine-2(1H)-thione], in data set [1], the “relative MBP binding compared with vehicle control” value was “significantly increased above vehicle control” and the “relative MBP binding (anti-MBP antibody)” value is given as “elevated relative MBP binding”.
For `Cc1cc(C2CCCCC2)[nH]c(=S)c1` [compound A1, 6-cyclohexyl-4-methylpyridine-2(1H)-thione], in data set [1], the “relative MBP binding compared with vehicle control” value is “significantly increased above vehicle control” and the “relative MBP binding (anti-MBP antibody)” value was “elevated relative MBP binding”. The “mean cerebellum MBP staining score” value in data set [2] (50 mg/kg IP QD, cuprizone chow 5 weeks, 1-4 scale, 4 highest, not significant) came out at 3.8. Further, in data set [2] (50 mg/kg IP QD, cuprizone chow 5 weeks, 1-4 scale, 4 highest, not significant vs vehicle), the “mean rostral corpus callosum MBP staining score” value stood at 3.2. In addition, the “mean caudal corpus callosum MBP staining score” value in data set [2] (50 mg/kg IP QD, cuprizone chow 5 weeks, 1-4 scale, 4 highest, p=0.0064 vs vehicle) was 3.1. Also, the “MBP expression in the rostral corpus callosum vs vehicle treated group” value in data set [2] (cuprizone mice) is “no statistically significant differences”. For the same compound, the “MBP expression in the dorsal corpus callosum vs mice receiving vehicle” value in data set [2] (cuprizone mice, p=0.0064) is listed as “significantly less demyelination”. For the same compound, the “mean cerebellar myelination score” value in the data set on C57/B6 mice (50 mg/kg IP QD, cuprizone chow 5 weeks, not significant) stood at 3.2. Moreover, in the data set on C57/B6 mice (50 mg/kg IP QD, cuprizone chow 5 weeks, not significant vs vehicle), the “mean rostral corpus callosum myelination score” value stood at 2.1. Besides, the “mean caudal corpus callosum myelination score” value with C57/B6 mice (50 mg/kg IP QD, cuprizone chow 5 weeks, p=0.0012 vs vehicle) is 2.1. Moreover, the “demyelination in the rostral corpus callosum vs vehicle treated group” value in the data set on C57/B6 mice (cuprizone mice) is “no statistically significant differences”. In addition, the “demyelination in the dorsal corpus callosum vs mice receiving vehicle” value in the data set on C57/B6 mice (cuprizone mice, p=0.0012) was “significantly less demyelination”. Also, in data set [3] (50 mg/kg IP QD, cuprizone food, 5 weeks), the “average loss of starting weight during the study” value was found to be 10.6%. Further, in data set [3] (50 mg/kg daily, cuprizone treatment), the toxicity entry was “no evidence of toxicity beyond that seen in the vehicle group”. Also, the “mice that suddenly started to lose weight and die” value in data set [3] (100 mg/kg IP QD, cuprizone food, between Days 20 and 24, despite discontinuation of dosing) is on record as “nine often mice”.
Turning to `Cc1cc(CC(C)CC(C)(C)C)[nH]c(=S)c1` (stereo not drawn) [compound A2, 4-methyl-6-(2,4,4-trimethylpentyl)pyridine-2(1H)-thione], the “relative MBP binding (anti-MBP antibody)” value in data set [1] is listed as “elevated relative MBP binding”.

(Values after patent publication US10654805B2, “Pyridinethiones, pharmaceutical compositions thereof, and their therapeutic use for treating a proliferative, inflammatory, neurodegenerative, or immune-mediated disease” (BioTheryX, Inc., priority 2016, dated 2020).)
